Source: patent US5464855A, “Thiophene-2-carboxamidotetrazoles and pharmaceutical use thereof” (Warner-Lambert Company, priority 1994, dated 1995)

Molecular target: T1, Mac-1 (Homo sapiens, UniProt P05107+P11215)
T1 construct: isolate neutrophils from ethylenediaminetetraacetic acid (EDTA)-treated venous blood obtained from healthy human volunteers; endogenous in cells; host or cells: human neutrophils (PMN) isolated from venous blood of healthy volunteers
Assay: Human neutrophil Mac-1 adhesion assay (fMLP-stimulated PMN adhesion to KLH-coated plates)
Format: cell-based
Settings: human neutrophils, read-out: percent drug inhibition vs. stimulus control
Description: Protocol for Human Neutrophil Mac-1 Adhesion Assay
Namely, we utilized Ferrante and Thong's methodology to isolate neutrophils from ethylenediaminetetraacetic acid (EDTA)-treated venous blood obtained from healthy human volunteers. Keyhole limpet hemocyanin (KLH) coated microtiter plates were prepared as follows:
All pipetting was automated using the Cetus Pro/Pette (Perkin-Elmer; division of Applied Biosystems, Foster, Calif.). KLH, Megathura crenulata; Calbiochem-Novabiochem, La Jolla, Calif., was prepared at a concentration of 0.5 mg/mL in Dulbecco's PBS phosphate buffered saline (PBS) with Ca^++, pH 7.2 (DPBS).
Microtiter plates are prewashed with 50% EtOH for 1 hour at 37° C., then drained and blotted to dryness. Then 0.3 mL KLH solution was pipetted into each well of the 96 well microtiter plate, covered and incubated overnight at 37° C. […]
a. mean unstimulated cell control OD is determined and subtracted from all other values b. mean net stimulated, e.g., FMLP, control values are determined c. mean drug values are determined and percent drug inhibition vs. stimulus control are calculated as follows: [formula] d. IC50 determinations, plotting logdose vs. percent inhibition, are determined by linear regression analysis using the least squares method.

T1 sequence (P05107 23-769, other chains not shown): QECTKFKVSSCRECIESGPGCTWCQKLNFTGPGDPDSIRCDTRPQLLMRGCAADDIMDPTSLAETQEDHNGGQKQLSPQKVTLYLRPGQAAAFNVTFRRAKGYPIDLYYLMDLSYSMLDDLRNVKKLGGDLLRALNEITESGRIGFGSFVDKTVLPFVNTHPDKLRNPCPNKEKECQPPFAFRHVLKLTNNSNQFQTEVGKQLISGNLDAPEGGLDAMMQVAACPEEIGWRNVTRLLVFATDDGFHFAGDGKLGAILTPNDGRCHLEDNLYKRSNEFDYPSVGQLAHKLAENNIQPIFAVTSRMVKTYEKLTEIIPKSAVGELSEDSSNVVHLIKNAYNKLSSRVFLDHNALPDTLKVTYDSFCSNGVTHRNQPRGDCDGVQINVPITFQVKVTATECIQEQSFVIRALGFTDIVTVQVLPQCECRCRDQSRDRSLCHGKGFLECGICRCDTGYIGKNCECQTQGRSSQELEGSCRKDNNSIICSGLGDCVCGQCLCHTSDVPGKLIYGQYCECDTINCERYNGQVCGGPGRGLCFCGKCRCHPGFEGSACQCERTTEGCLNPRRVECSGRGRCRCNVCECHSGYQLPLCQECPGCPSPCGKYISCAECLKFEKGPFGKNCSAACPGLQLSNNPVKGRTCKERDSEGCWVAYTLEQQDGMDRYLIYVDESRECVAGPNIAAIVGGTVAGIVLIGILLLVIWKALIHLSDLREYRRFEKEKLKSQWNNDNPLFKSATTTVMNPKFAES

Structure (SMILES)	inhibition at 33 µM [%]
CC(C)Oc1c(C(=O)Nc2nnn[nH]2)sc2c1CCC2 [Example 2, 3-Isopropoxy-5,6-dihydro-4H-cyclopenta[b]thiophene-2-carboxylic acid (1H-tetrazol-5-yl)-amide]	27
CC(C)Oc1c(C(=O)Nc2nnn[nH]2)sc2c1CS(=O)(=O)CC2 [Example 6, 3-Isopropoxy-5,5-dioxo-6,7-dihydro-4H-thieno[3,2-c]thiopyran-2-carboxylic acid (1H-tetrazol-5-yl) amide]	38
